Assay results: patent US6361805B1, “Method of preparation and composition of a water soluble extract of the plant species uncaria for enhancing immune, anti-inflammatory, anti-tumor and DNA repair processes of warm blooded animals” (priority 1997, dated 2002)

Tested on: HL-60 cells
Test: Induction of apoptosis, scored by phase contrast morphological criteria
Type: cell-based, human
Conditions: HL-60, 100 μM hydrogen peroxide positive control, 0-72 hours
Procedure: FIG. 2. Time course of apoptosis in HL-60 cells induced by C-MED-100 extract (Example 1) as compared to negative (no treatment) or positive (100 μM H2O2 exposure) controls.
For the purpose of evaluating apoptosis in vitro, human leukemic HL-60 cells were cultured at a density of 0.5×10^6 cells per milliliter in 10% calf serum supplemented RPMI medium in a 5% CO2 atmosphere at 37° C. for 48 hours. The cells were harvested by centrifugation and resuspended in a fresh medium at a concentration of 1-2×10^6 cells per milliliter in 15 milliliter Falcon test tubes for bioassay purposes. Next the cells were exposed to either 100 μM hydrogen peroxide as a positive control or 397 μg per milliliter C-Med-100 extract prepared according to Example 1 or no exposure for 0-72 hours at 37° C. Samples of cells were taken from the cultures at the time periods indicated in FIG. 2 and the % apoptosis in the total cells counted were analyzed and scored by phase contrast morphological criteria.

## OO [Hydrogen peroxide]
  apoptotic cells over time: massive cell death by apoptosis within 24 hours
